The record followed here is article PMC4552634, “A New Set of Chemical Starting Points with Plasmodium falciparum Transmission-Blocking Potential for Antimalarial Drug Discovery” (PLoS ONE, 2015).

Each structure is given as a SMILES string.

The first assay deals with P. falciparum stage V gametocytes. The assay can be described thus: microbe, parasite or virus in culture. Also noted: BacTiter-Glo ATP luminescence viability of purified stage V gametocytes in 384-well plates, per cent inhibition versus DMSO. The following applies: 48 h, 5 µM; inhibitor.
Broadly, the % Inhibition is the percentage by which the read-out fell short of the control. A low value points to a weak effect. On to `CN(C)CCN1CCN(CCCN2c3ccccc3Sc3ccc(C(F)(F)F)cc32)CC1` [TCMDC-142257], for which the “% Inhibition” value is 92.65%.

Still in this assay, the particulars now being: Plasmodium falciparum, 48 h, read-out: % Inhibition.
As a reminder, the inhibition is the change of the read-out against control, counted positive when it falls. As to `COc1ccc(C=NNc2cc(C)nc3c(C)cccc23)c2ccccc12` [TCMDC-142216], the inhibition at 5 µM is -26.1%. Turning to `COc1ccc(C=NNc2cc(C)nc3ccc(C)cc23)c2ccccc12` [TCMDC-142217], the inhibition at 5 µM turned out to be 103%.

Regarding `Oc1ccc(Br)cc1-c1nc2ccc(Cl)cc2nc1-c1cc(Br)ccc1O` [TCMDC-142219], the inhibition at 5 µM came out at 82.4%.

In the case of `Cc1cc2nc(-c3cc(Br)ccc3O)c(-c3cc(Br)ccc3O)nc2cc1C` [TCMDC-142220], the inhibition at 5 µM came to 24.2%. Turning to `CC(C)NCC(O)COc1ccc(Cc2ccc(OCC(O)CNC(C)C)cc2)cc1` (stereo not shown) [TCMDC-142221], the inhibition at 5 µM came out at 77%. As to `CCN(CC)CC(O)c1cc(-c2ccc(OC)cc2)nc2cc(Cl)ccc12` (stereo not shown) [TCMDC-142222], the inhibition at 5 µM was -13%. As to `CCCCCCCCNCC(O)c1cc(-c2ccc(Cl)cc2)nc2cc(C)ccc12` (stereo not shown) [TCMDC-142223], the inhibition at 5 µM was -7.88%.

Regarding `COc1ccc(OC)c2c1CC1NCC2c2c(OC)ccc(OC)c21` (stereo not shown) [TCMDC-142224], the inhibition at 5 µM stood at 2.64%. For `CCCCCCCCNCC(O)c1ccc(Cl)c(Cl)c1` (stereo not shown) [TCMDC-142225], the inhibition at 5 µM worked out at 17.7%.

In the case of `CCN(Cc1ccccc1)CC(O)c1ccc(Cl)c(Cl)c1` (stereo not shown) [TCMDC-142226], the inhibition at 5 µM came out at 14.8%. On to `CCCCNC(c1ccc(Cl)cc1)C(O)c1ccc(Cl)cc1` (stereo not shown) [TCMDC-142227], for which the inhibition at 5 µM is -29.7%. For `OC(c1cc(C(F)(F)F)nc2c(F)cccc12)C1CCCCN1` (stereo not shown) [TCMDC-142228], the inhibition at 5 µM was found to be 37.8%. In the case of `CCN(CC)CC(O)c1cc(-c2ccc(C)cc2)nc2c(C)cc(C)cc12` (stereo not shown) [TCMDC-142229], the inhibition at 5 µM is -117%. With `N#Cc1ccc(S(=O)(=O)N2C(c3cccc([N+](=O)[O-])c3)C(C(=O)c3ccccc3)N(C3CCCCC3)C2c2cccc([N+](=O)[O-])c2)cc1` (stereo not shown) [TCMDC-142230], the inhibition at 5 µM is 43.9%.

As for `COc1ccc(C=NNc2c3ccccc3nc3ccccc23)c2ccccc12` [TCMDC-142231], the inhibition at 5 µM is -139%. As for `Cc1c(N=O)cc(C(C)(C)C)c(O)c1C(=O)Nc1ccc([N+](=O)[O-])cc1Cl` [TCMDC-142233], the inhibition at 5 µM was found to be 32.7%. As for `COc1ccc2ccccc2c1C=NNc1cc(C)nc2c(C)cccc12` [TCMDC-142234], the inhibition at 5 µM was 35.2%. For `COc1ccc(C=NNc2ccnc3cc(F)c(C)cc23)c2ccccc12` [TCMDC-142235], the inhibition at 5 µM is -8.9%. Take `COc1ccc2c(NN=Cc3c(OC)ccc4ccccc34)cc(C)nc2c1` [TCMDC-142236]: the inhibition at 5 µM worked out at 103%. `COc1ccc2ccccc2c1C=NNc1ccnc2ccc(F)cc12` [TCMDC-142237]: the inhibition at 5 µM is -11.1%. Consider `COc1ccc2ccccc2c1C=NNc1cc(C)nc2cc(C(F)(F)F)ccc12` [TCMDC-142238], for which the inhibition at 5 µM was -35%. The same measure, in the same setting: the value for `COc1ccc2c(NN=C(C)c3ccccn3)cc(C)nc2c1` [TCMDC-142239] was 103%; that for `CCOC(=O)c1cnc2c(OC)cc(OC)c(Cl)c2c1Nc1ccccc1` [TCMDC-142240] was 44.8%; that for `CCOC(=O)c1cnc2c(OC)cc(OC)c(Cl)c2c1Nc1cccc(C)c1` [TCMDC-142241] was -99.9%. For `CCOC(=O)c1cnc2c(OC)cc(OC)c(Cl)c2c1Nc1cccc(C)c1C` [TCMDC-142242], the inhibition at 5 µM was 64.1%. With `CCCCc1ccc2[nH]cc(C(=O)OCC)c(=O)c2c1` [TCMDC-142243], the inhibition at 5 µM came to 33.5%. Same read-out and setting: the result for `CN(C(=O)c1ccc(Br)cc1)c1ccccc1[N+](=O)[O-]` [TCMDC-142245] reads -8%; that for `CCCCCCc1cc(OC)c(OC)cc1C(C)Nc1ccnc2cc(Cl)ccc12` (stereo not shown) [TCMDC-142247], -55.2%.

For the compound `CCCCCCN(CCCCCC)CC(O)c1c(OC)ccc2ccccc12` (stereo not shown) [TCMDC-142248], the inhibition at 5 µM was -34.9%. Take `Cc1ccccc1C1=CCN(CCCN2c3ccccc3Sc3ccc(Cl)cc32)CC1` [TCMDC-142249]: the inhibition at 5 µM was 53.4%. On to `COc1ccccc1-c1nc2nc(N)nc(N)c2nc1-c1ccccc1OC` [TCMDC-142250], for which the inhibition at 5 µM was 16.7%. Still for that read-out and setting: the value for `O=C(NC1c2ccccc2Oc2ccccc21)c1ccccc1O` [TCMDC-142251] was 3.63%; that for `CCCN(CCC)CCCOc1ccc(C(=O)c2c(-c3ccc(OCCCN(CCC)CCC)cc3)oc3ccc(Cl)cc23)cc1` [TCMDC-142256] was 105%.

With `Cc1ccc(C2(O)CC3CCC(C2)N3C)cc1` (stereo not shown) [TCMDC-142260], the inhibition at 5 µM worked out at 10.6%. As to `CC(C)OC(=O)c1ccccc1S(N)(=O)=O` [TCMDC-142262], the inhibition at 5 µM was -12.6%. As for `CCN(CC)CCCC(C)Nc1c(-c2ccc(Br)cc2)cnc2ccccc12` (stereo not shown) [TCMDC-142263], the inhibition at 5 µM amounted to 26%. As for `CCN(CC)CCCC(C)Nc1c(-c2ccc(C)cc2)cnc2ccccc12` (stereo not shown) [TCMDC-142264], the inhibition at 5 µM was found to be 25.6%. For the compound `CCN(CC)CCCC(C)Nc1c(-c2ccc(OC)cc2)cnc2ccccc12` (stereo not shown) [TCMDC-142265], the inhibition at 5 µM came to 36.6%. For `Cc1ccc(O)cc1C[C@@H]1C(=O)CC[C@@]2(C)[C@H]1CC[C@]2(C)O` [TCMDC-142266], the inhibition at 5 µM was -40.3%.

`c1ccc2c3c(ccc2c1)Sc1c(ccc2ccccc12)N3` [TCMDC-142267]: the inhibition at 5 µM is -92.1%. On to `CCCCN(CCCC)CC(O)c1cc(-c2ccc(Cl)cc2)nc2c(Cl)cc(Cl)cc12` (stereo not shown) [TCMDC-142268], for which the inhibition at 5 µM was -20.8%. For `Fc1ccc(C2N=C(SCCSC3=NC(c4ccc(F)cc4)C(c4ccc(F)cc4)N3)NC2c2ccc(F)cc2)cc1` (stereo not shown) [TCMDC-142269], the inhibition at 5 µM is -7.65%. For `C=CCN1Cc2c(O)cccc2C(c2ccc(O)c(O)c2)C1` (stereo not shown) [TCMDC-142270], the inhibition at 5 µM was -127%. `COc1ccc(C2CNCc3c2cc(OC)c(OC)c3Cl)cc1` (stereo not shown) [TCMDC-142271]: the inhibition at 5 µM is 22.9%.

As for `COc1cc2c(cc1OC)C(c1ccc(Br)cc1)CN(C)CC2` (stereo not shown) [TCMDC-142272], the inhibition at 5 µM is 20.3%. On to `COc1ccc(CSC2CCCCC23NC(=S)NC3=S)cc1` (stereo not shown) [TCMDC-142273], for which the inhibition at 5 µM was 5.66%. For the compound `CCCC(C(=O)OCCNC)(c1ccccc1)c1ccccc1` [TCMDC-142275], the inhibition at 5 µM amounted to 48.4%. On to `CC(C)NCc1cc(Nc2ccnc3cc(Cl)ccc23)ccc1O` [TCMDC-142277], for which the inhibition at 5 µM is -61.6%. Regarding `COc1ccc2nc3cc(Cl)ccc3c(Nc3ccc(O)c(CNC(C)C)c3)c2c1` [TCMDC-142278], the inhibition at 5 µM amounted to 57.9%. On the same count and under the same terms, the value for `CCCCN(CCCC)Cc1cc(Nc2ccnc3cc(Cl)ccc23)ccc1O` [TCMDC-142279] was -8.89%; that for `COc1ccc(C=Cc2cc(N)c3ccccc3n2)cc1` [TCMDC-142280] was 97.9%; that for `Nc1cc(-c2ccc3ccccc3c2)nc2ccccc12` [TCMDC-142281] was 1.22%. Same read-out and setting: the value for `Nc1c2c(nc3ccc(Oc4ccc(Cl)cc4)cc13)CCCC2` [TCMDC-142282] was 92%; that for `CCN(CC)Cc1cc(NC(=O)c2ccccc2O)ccc1Oc1ccc(Cl)cc1` [TCMDC-142283] was -6.19%; that for `Nc1c2c(nc3ccc(C(=O)Nc4ccccc4)cc13)CCCC2` [TCMDC-142284] was 39.7%. With `COc1ccc(C=Cc2cc(N)c3ccccc3n2)cc1Br` [TCMDC-142285], the inhibition at 5 µM was found to be 39.4%. In the case of `Nc1c2c(nc3ccc(Oc4ccc(Br)cc4Br)cc13)CCCC2` [TCMDC-142286], the inhibition at 5 µM was 91.6%. For `Nc1c2c(nc3ccc(C(=O)Nc4ccc(Br)cc4)cc13)CCCC2` [TCMDC-142287], the inhibition at 5 µM was determined as 62.2%.

As to `Nc1c2c(nc3ccccc13)C(=Cc1ccc(O)cc1)CCC2` [TCMDC-142288], the inhibition at 5 µM is -4.93%. For the compound `CC1=C(C(=O)OCCOCc2ccccc2)C(c2ccccc2C(F)(F)F)C(C(=O)OCCOCc2ccccc2)=C(C)N1` [TCMDC-142290], the inhibition at 5 µM amounted to 61.1%.

In the case of `Nc1c2c(nc3ccc(NC(=O)c4ccc([N+](=O)[O-])cc4)cc13)CCCC2` [TCMDC-142291], the inhibition at 5 µM was determined as 60.6%. As for `Nc1c2c(nc3ccc(C(=O)Nc4cc(I)c(O)c(I)c4)cc13)CCCC2` [TCMDC-142292], the inhibition at 5 µM is -1.08%. As to `CC(C)(C)c1cc([N+](=O)[O-])cc(C(=O)Nc2ccccc2C(F)(F)F)c1O` [TCMDC-142293], the inhibition at 5 µM is -4.47%.

As for `CCOc1cc(NCCSCc2nc[nH]c2C)nc2ccccc12` [TCMDC-142294], the inhibition at 5 µM was determined as 26.1%. Take `CON(CCCN(C)C)C(=N)N` [TCMDC-142297]: the inhibition at 5 µM was found to be 12.5%.

Staying with this assay, now noted: Plasmodium falciparum, 48 h; read-out: % Inhibition.
As for `CCCCCC(C)C(C)c1cc(O)c2c(c1)OC1(C(C)C)CC(O)C(C)C2C1` (stereo not shown) [TCMDC-142232], the inhibition at 5 µM came to 44.6%. Still for that read-out and setting: the value for `CNCCc1c(O)ccc2ccccc12` [TCMDC-142244] was -11.4%.

On to `CCCCCCC(C)(C)c1cc(O)c2c3c(c(=O)oc2c1)CCN(Cc1ccccc1)C3` [TCMDC-142252], for which the inhibition at 5 µM was -7.75%.

Take `CCCCCCC(C)(C)c1cc(O)c2c(c1)OC(C)(C)c1ccncc1-2` [TCMDC-142253]: the inhibition at 5 µM stood at 30.7%. Same read-out and setting: the value for `CCCCCCC(C)c1cc(O)c2c(c1)OC(C)(C)c1ccncc1-2` (stereo not shown) [TCMDC-142254] was 56.1%; that for `CCCCCc1cc(O)c2c(c1)OC(C)(C)c1ccncc1-2` [TCMDC-142255] was -24.7%; that for `CCCCCCC(CC)c1cc(O)c2c(c1)OC(C)(C)c1ccncc1-2` (stereo not shown) [TCMDC-142258] was -39.1%. The same measure, in the same setting: the result for `CCCCCCCc1cc(O)c2c(c1)OC(C)(C)c1ccncc1-2` [TCMDC-142259] reads 6.2%; that for `CC1=CC(=O)[C@@H](O)[C@]2(C)[C@H]3[C@@]4(O)OC[C@@]35[C@@H](C[C@@H]12)OC(=O)C[C@H]5[C@@H](C)[C@H]4O` [TCMDC-142261], 50.1%; that for `CCOC(=O)CCCN1C(=O)CN=C(c2ccccc2)c2cc(Cl)ccc21` [TCMDC-142274], -8.73%.
